According to PMC9220351, “Evaluation of a Conformationally Constrained Indole Carboxamide as a Potential Efflux Pump Inhibitor in Pseudomonas aeruginosa” (Antibiotics, 2022):
In brackets after ≈: the same amount, converted by molar mass. Like-named read-outs stand apart in the source and are kept apart here.

How the values were obtained:
[1] = test system: P. aeruginosa ATCC 27853; experiment: MIC / antibiotic potentiation assay, wild-type strain; settings: for MIC: Pseudomonas aeruginosa
[2] = test system: 209 P. aeruginosa clinical isolates from three US hospitals; experiment: Susceptibility study, Micromyx panel; format: cell-based, Pseudomonas aeruginosa; settings: for Cumulative Susceptibility % Strains at 1: concentration 1 µg/ml; for Cumulative Susceptibility % Strains at 2: concentration 2 µg/ml; for Cumulative Susceptibility % Strains at 4: concentration 4 µg/ml; for Cumulative Susceptibility % Strains at 8: concentration 8 µg/ml; for Cumulative Susceptibility % Strains at 16: concentration 16 µg/ml; for Cumulative Susceptibility % Strains at 32: concentration 32 µg/ml; for Cumulative Susceptibility % Strains at >32: concentration >32 µg/ml
Source text: First, 209 clinical isolates of P. aeruginosa were collected, unbiased of susceptibility, from three US hospitals by Micromyx (now part of Microbiologics; Kalamazoo, MI, USA). IHMA (Monthey, Switzerland) collected 300 P. aeruginosa clinical isolates, also unbiased of susceptibility, from the following 63 countries: Argentina, Australia, Belgium, Brazil, Canada, Chile, Colombia, Costa Rica, Croatia, Czech Republic, Denmark, Dominican Republic, Ecuador, France, Georgia, Germany, Greece, Guatemala, Hong Kong, Hungary, India, Ireland, Israel, Italy, Japan, Jordan, Kazakhstan, Kenya, South Korea, Kuwait, Latvia, Lebanon, Lithuania, Malaysia, Mexico, Morocco, Netherlands, New Zealand, Nigeria, Panama, Philippines, Poland, Portugal, Puerto Rico, Qatar, Romania, Russia, Saudi Arabia, Serbia, Slovenia, South Africa, Spain, Sweden, Switzerland, Taiwan, Thailand, Tunisia, Turkey, Ukraine, United Kingdom, United States, Venezuela, and Vietnam. Isolates came from the following types of infection: genitourinary (urine), gastrointestinal (stomach), gastrointestinal (pancreas), […] (wound), respiratory (sputum), […] (blood), respiratory (bronchoalveolar lavage), […] (burn), respiratory (endotracheal aspirate), bodily fluids (abscess/pus), […] (impetiginous lesions), gastrointestinal (abscess) and respiratory (bronchial brushing). CF patients were not excluded.
(§1) MIC assays were performed as described previously.

[3] = test system: P. aeruginosa mutants EPIR1S, EPIR9S, EPIR20L, EPIR43; experiment: MIC of antimicrobials in TXA09155-resistant mutants; format: cell-based, Pseudomonas aeruginosa; settings: Pseudomonas aeruginosa
Procedure: All resistant colonies were verified by determining the MIC to TXA09155. […] This two-component system regulates the expression of more than 100 genes in P. aeruginosa, including genes that code for efflux components (mexX), and plays a role in the resistance to cationic antimicrobial peptides and aminoglycoside antibiotics.
as §1

[4] = test system: P. aeruginosa K1455 (mexAB-oprM overexpressed); experiment: microbe, parasite or virus in culture; format: cell-based, Pseudomonas aeruginosa; settings: Pseudomonas aeruginosa, read-out: MICs K1455 (↑mexAB-oprM)
Source text: (§2) P. aeruginosa ATCC 27853 was obtained from the American Type Culture Collection (ATCC; Manassas, VA, USA). P. aeruginosa multidrug-resistant isolates were obtained from the CDC and FDA Antibiotic Resistance Isolate Bank (Atlanta, GA, USA). P. aeruginosa DA7232 (gyrA-T83I, parC-S80L) was a kind gift from Prof. Dan I. Andersson, Uppsala University, Uppsala, Sweden, and has been characterized elsewhere. P. aeruginosa strains K767 (WT), K1455 (mexAB-oprM overexpressed), K2415 (mexXY-oprM overexpressed), and K3698 (oprM∆) were obtained from Prof. Keith Poole, Queen’s University, Kingston, Ontario, Canada and have been characterized elsewhere. Bacterial cells were grown in cation-adjusted Mueller Hinton (CAMH) media, brain heart infusion broth (BHI), or tryptic soy agar (TSA) plates were all obtained from Becton, Dickinson, and Company (BD; Franklin Lakes, NJ, USA). Aztreonam, ceftazidime, moxifloxacin, levofloxacin, minocycline, tigecycline, chloramphenicol, nitrocefin, and imipenem were purchased from TOKU-E (Bellingham, WA, USA). Azithromycin was purchased from Tokyo Chemical Industry (Portland, OR, USA). Cotrimoxazole was purchased from Toronto Research Chemicals (Toronto, ON, Canada). Doxycycline and polymyxin B were purchased from Sigma-Aldrich (St. Louis, MO, USA). Ethidium bromide (EtBr) and glucose were purchased from VWR (Radnor, PA, USA). MC-04,124 and TXA01182 were synthesized at TAXIS Pharmaceuticals. Carbonyl cyanide 3-chlorophenylhydrazone (CCCP) was purchased from Enzo Life Sciences (Farmingdale, NY, USA). DiOC2 (3) and propidium iodide were obtained from Thermo Fisher Scientific (Waltham, MA, USA).
as §1

[5] = test system: P. aeruginosa DA7232 (gyrA-T83I, parC-S80L); experiment: MIC / levofloxacin potentiation, fluoroquinolone-resistant strain; format: cell-based, Pseudomonas aeruginosa
Source text: as §2, §1

[6] = CellTiterGlo cytotoxicity assay; format: cell-based; settings: human, A549 cells
[7] = test system: P. aeruginosa ATCC 27853; experiment: Time-kill studies; format: cell-based, Pseudomonas aeruginosa; settings: highest concentration tested
Procedure: Time-kill studies were carried out as described previously with the following changes.

[8] = test system: P. aeruginosa DA7232; experiment: Levofloxacin accumulation assay; format: cell-based, Pseudomonas aeruginosa; settings: levofloxacin 64 μg/mL; compound 1/2, 1/4th, 1/8th MIC
Procedure: Similar assays have been described elsewhere with the same purpose.
The treated bacterial culture samples were incubated on ice for 15 min, centrifuged, washed with 1X PBS (pH 7.4), and then resuspended in 1 mL of glycine-HCl buffer (pH 3.0) overnight, followed by centrifugation. The fluorescence of 100 μL of supernatant was read at 490 nm following a 355 nm excitation in a SpectraMax iD5 spectrophotometer (Molecular Devices, San Jose, CA, USA).

[9] = molecular target: CYP2C9 (Homo sapiens, UniProt P11712); experiment: CYP inhibition; format: in vitro ADME; settings: read-out: CYP Inhibition IC50, CYP 2C9
CYP2C9, sequence (P11712 whole entry): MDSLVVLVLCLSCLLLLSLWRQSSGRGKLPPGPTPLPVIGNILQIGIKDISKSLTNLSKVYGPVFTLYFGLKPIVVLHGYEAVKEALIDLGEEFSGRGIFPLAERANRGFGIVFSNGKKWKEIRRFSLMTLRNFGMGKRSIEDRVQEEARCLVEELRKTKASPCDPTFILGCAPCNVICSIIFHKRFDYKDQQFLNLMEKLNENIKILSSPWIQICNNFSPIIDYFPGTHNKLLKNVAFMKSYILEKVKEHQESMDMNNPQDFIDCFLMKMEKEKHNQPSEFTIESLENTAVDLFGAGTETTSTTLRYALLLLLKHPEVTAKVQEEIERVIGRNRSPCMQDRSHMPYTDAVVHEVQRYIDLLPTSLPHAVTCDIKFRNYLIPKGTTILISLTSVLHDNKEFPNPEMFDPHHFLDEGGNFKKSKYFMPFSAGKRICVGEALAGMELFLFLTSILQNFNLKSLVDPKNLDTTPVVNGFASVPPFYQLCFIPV

[10] = molecular target: hERG channel (Homo sapiens, UniProt Q12809); experiment: hERG patch clamp assay (Q-Patch, CHO cell line); format: cell-based
hERG channel, sequence (Q12809 whole entry): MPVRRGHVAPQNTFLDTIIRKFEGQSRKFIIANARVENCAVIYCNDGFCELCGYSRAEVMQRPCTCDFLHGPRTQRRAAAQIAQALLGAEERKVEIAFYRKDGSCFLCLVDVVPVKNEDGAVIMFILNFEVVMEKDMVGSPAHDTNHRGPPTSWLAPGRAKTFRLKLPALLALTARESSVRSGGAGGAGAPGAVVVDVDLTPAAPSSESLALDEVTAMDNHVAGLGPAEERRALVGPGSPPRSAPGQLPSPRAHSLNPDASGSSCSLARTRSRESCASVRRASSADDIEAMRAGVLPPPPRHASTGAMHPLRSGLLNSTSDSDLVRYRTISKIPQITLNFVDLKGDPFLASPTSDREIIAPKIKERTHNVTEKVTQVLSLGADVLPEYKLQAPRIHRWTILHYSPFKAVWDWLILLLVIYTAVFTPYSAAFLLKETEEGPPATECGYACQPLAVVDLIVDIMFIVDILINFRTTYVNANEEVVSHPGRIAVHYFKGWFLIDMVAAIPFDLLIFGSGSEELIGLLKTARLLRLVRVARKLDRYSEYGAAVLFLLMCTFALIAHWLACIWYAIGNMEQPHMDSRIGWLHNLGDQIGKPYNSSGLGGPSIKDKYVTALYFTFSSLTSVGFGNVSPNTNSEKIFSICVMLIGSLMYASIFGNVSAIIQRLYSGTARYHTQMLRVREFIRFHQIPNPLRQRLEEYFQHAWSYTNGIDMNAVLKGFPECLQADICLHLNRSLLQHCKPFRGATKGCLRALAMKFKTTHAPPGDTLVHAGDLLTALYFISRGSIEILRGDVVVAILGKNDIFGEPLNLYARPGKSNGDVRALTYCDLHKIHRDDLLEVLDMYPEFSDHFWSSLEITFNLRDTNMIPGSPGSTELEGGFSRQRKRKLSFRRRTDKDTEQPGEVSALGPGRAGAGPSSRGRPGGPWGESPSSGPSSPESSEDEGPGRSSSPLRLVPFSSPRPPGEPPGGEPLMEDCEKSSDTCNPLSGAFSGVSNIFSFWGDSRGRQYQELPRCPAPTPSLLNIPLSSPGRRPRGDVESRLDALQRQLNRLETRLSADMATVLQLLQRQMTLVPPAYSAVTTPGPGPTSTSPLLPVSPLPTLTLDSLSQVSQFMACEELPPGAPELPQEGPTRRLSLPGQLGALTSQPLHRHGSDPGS
Procedure: The metabolic stability of TXA09155 was determined in human, mouse, and rat liver microsomes by Eurofins (St. Charles, MO, USA) using the substrate depletion method (in vitro half-life (t1/2) method). Quantification was performed by LC/MS/MS. In this assay, depletion of the parent compound is measured over time to determine the compound’s in vitro t1/2 and hepatic extraction ratios (ER). This is used to predict metabolic clearance. […] This assay utilizes electrophysiology measurements on the electric current passing through the hERG channel heterologously expressed in a stable CHO cell line. Channels are open by a hERG-specific voltage protocol, and the compound effects are directly characterized by their block of the hERG current. The assay is performed on an automated platform, Q-Patch.

[11] = n: 209, in combination TXA09155 fixed […]
[12] = TXA09155 fixed […], 209 isolates

Q: With C[C@H]1COc2c(N3CCN(C)CC3)c(F)cc3c(=O)c(C(=O)O)cn1c23 [Levofloxacin] as the compound, how does the MIC ([1]; ATCC27853, read-out: Antibiotic MIC in Presence of TXA09155 at a Concentration of 0) read?
A: 1 µg/mL

Q: And the MIC ([1]; ATCC27853, read-out: MICs, Lack of EPI)?
A: 1 µg/mL

Q: And the “Antibiotic MIC in Presence of TXA09155 at a Concentration of 3.13” value ([1]; TXA09155 3.13 μg/mL)?
A: 1 µg/mL

Q: And the “Antibiotic MIC in Presence of TXA09155 at a Concentration of 25” value ([1]; TXA09155 25 μg/mL)?
A: 0.063 µg/mL

Q: What about the “% R (percent resistant per breakpoints)” value ([2]; LVX ≤1S 2I ≥4R, n: 209) of the same compound?
A: 32%

Q: And the “Cumulative Susceptibility % Strains at 0.5” value ([2]; concentration 0.5 µg/ml, n: 209)?
A: 47%

Q: What about the “Cumulative Susceptibility % Strains at 1” value ([2]; n: 209) of the same compound?
A: 58%

Q: And the “Cumulative Susceptibility % Strains at 2” value ([2]; n: 209)?
A: 68%

Q: What about the “Cumulative Susceptibility % Strains at 4” value ([2]; n: 209) of the same compound?
A: 78%

Q: And the “Cumulative Susceptibility % Strains at 8” value ([2]; n: 209)?
A: 86%

Q: And the “Cumulative Susceptibility % Strains at 16” value ([2]; n: 209)?
A: 93%

Q: What about the “Cumulative Susceptibility % Strains at 32” value ([2]; n: 209) of the same compound?
A: 98%

Q: And the “Cumulative Susceptibility % Strains at >32” value ([2]; n: 209)?
A: 100%

Q: What about the “Cumulative Susceptibility % Strains at 0.12” value ([2]; concentration column 0.12 µg/ml, n: 209) of the same compound?
A: 2%

Q: And the MIC50 [2, 11]?
A: 1 µg/mL

Q: And the MIC90 [2, 11]?
A: 16 µg/mL

Q: What about the MIC ([3]; strain EPIR1S (phoQ-L175R)) of the same compound?
A: 1 µg/mL

Q: And the MIC ([3]; strain EPIR9S (phoQ-L175R))?
A: 1 µg/mL

Q: And the MIC ([3]; strain EPIR20L (phoQ-H248D))?
A: 1 µg/mL

Q: And the MIC [4]?
A: 4 µg/mL (≈ 11.1 µM)

Q: What about the MIC ([5]; Pseudomonas aeruginosa, read-out: levofloxacin MIC in the presence of […] TXA09155) of the same compound?
A: 1 µg/mL

Q: And the “Levofloxacin MIC” value ([5]; levofloxacin alone, strain DA7232)?
A: 256 µg/mL

Q: Which MIC ([1]; ATCC27853) does the source give for Cl.NC[C@@H]1CN[C@H](CNC(=O)c2cc3ccc(-c4ccc(F)cc4)cc3[nH]2)C1 [TXA09155, N-(((2S,4R)-4-(aminomethyl)pyrrolidine-2-yl)methyl)-6-(4-fluorophenyl)-1H-indole-2-carboxamide hydrochloride salt] here?
A: 50 µg/mL

Q: What about the “lowest active concentration for TXA09155” value ([1]; antibiotic potentiation) of the same compound?
A: 6.25 µg/mL

Q: What about the IC50 [6] of the same compound?
A: > 40 µM

Q: What about the “effect on growth, compound alone” value [7] of the same compound?
A: did not affect the growth

Q: And the “accumulation of levofloxacin inside P. aeruginosa” value [8]?
A: concentration-dependent manner

Q: What about the “levofloxacin MIC50 in presence of TXA09155” value [2, 12] of the same compound?
A: 0.12 µg/mL

Q: What about the “levofloxacin MIC90 in presence of TXA09155” value [2, 12] of the same compound?
A: 2 µg/mL

Q: What about the “Cumulative Susceptibility % Strains at 1” value ([2]; n: 209) of the same compound?
A: 2%

Q: What about the “Cumulative Susceptibility % Strains at 2” value ([2]; n: 209) of the same compound?
A: 2%

Q: What about the “Cumulative Susceptibility % Strains at 4” value ([2]; n: 209) of the same compound?
A: 3%

Q: What about the “Cumulative Susceptibility % Strains at 8” value ([2]; n: 209) of the same compound?
A: 6%

Q: And the “Cumulative Susceptibility % Strains at 16” value ([2]; n: 209)?
A: 9%

Q: And the “Cumulative Susceptibility % Strains at 32” value ([2]; n: 209)?
A: 36%

Q: And the “Cumulative Susceptibility % Strains at >32” value ([2]; n: 209)?
A: 100%

Q: What about the MIC ([3]; strain EPIR1S (phoQ-L175R)) of the same compound?
A: 200 µg/mL

Q: And the MIC ([3]; strain EPIR9S (phoQ-L175R))?
A: 100 µg/mL

Q: What about the MIC ([3]; strain EPIR20L (phoQ-H248D)) of the same compound?
A: 200 µg/mL

Q: And the “lowest concentration that potentiated levofloxacin eight-fold” value ([5]; strain DA7232)?
A: 3.13 µg/mL

Q: And the IC50 [9]?
A: > 100 µM

Q: And the IC50 [10]?
A: 16 µM
